The target in data set [1] is T1, Pol/UL42 interaction (Oregon Green-peptide E / MBP-UL42Δ340) (Human herpesvirus 1, UniProt P10226).
T1 construct: made in house; host or cells: E. coli BL21(de3)pLysS (UL42Δ340 fusion); peptide E synthetic
Description: Fluorescence polarization (FP) assay of Pol peptide/UL42 binding. Further details: species or system herpes simplex virus. Conditions: for dose dependent change in the FP signal: serial dilution, FIG. 3. As for the experimental part: Peptide probe and MBP-UL42. A peptide comprising the 18 C-terminal amino acids of HSV Pol (peptide E) was synthesized, N-terminally labeled with the pentafluorofluorescein-derivative Oregon Green 514 (Molecular Probes) and HPLC-purified. A truncated version of UL42 (UL42Δ340) was expressed in BL21(de3)pLysS E.coli as maltose binding protein fusion as described [Bridges et al. 2001] and purified over an amylose column (New England Biolabs). […] After elution with 10 mM maltose in 50 mM TrisHCl, 1 mM DTT, 0.5 mM EDTA, 4% Glycerol, 200 mM NaCl and Complete™ protease inhibitors (Roche Molecular Biochemicals), the protein was concentrated when necessary and stored at −80° C. until further use. After thawing, the purification buffer was exchanged to low fluorescent grade reagents (PanVera) and maltose was removed simultaneously using 10-DG Bio-Gel columns (BioRad). Fluorescence polarization assays. 1 nM of Oregon Green-peptide E was added to 7 uM MBP-UL42Δ340 and kept on ice until the mix was distributed into black 384-well plates (LJL Biosystems) in a total volume of 20 ul per well. The buffer conditions were 50 mM TrisHCl pH 7.5, 1 mM DTT, 0.5 mM EDTA, 150 mM NaCl, 4% Glycerol and 100 ug ml^−1 bovine gamma globulin. All chemicals were low fluorescent grade (PanVera).
Using this assay, the 16,320 compound Chembridge library that had been purchased by the Harvard Institute of Chemistry and Cell Biology (ICBB) was screened. Small molecules (5 mg ml^−1 in DMSO; ChemBridge) were screened using 384-pin arrays (Genetix), and 40 nl of each compound was transferred into every well. After incubation between 5 and 45 minutes at room temperature, the FP values were determined in the Analyst plate reader (LJL Biosystems). Chemicals for further testing were obtained from ChemBridge.
DNA polymerase long-chain synthesis assay. Compounds which elicited a decrease in the fluorescence polarization, when compared to control values, were tested for the ability to inhibit long-chain DNA synthesis via inhibition of polymerase subunit assembly [Digard et al. 1995; Bridges et al. 2001] using a poly-A template (Amersham Pharmacia) and an oligo-dT primer (Roche Molecular Biochemicals) on which Pol alone adds only a few bases. Reaction mixtures (50 mM Tris-HCl pH 7.5, 100 mM ammonium sulfate, 3 mM MgCl2, 0.1 mM EDTA, 1 mM DTT, 4% Glycerol, 40 ug ml^−1 BSA, 100 ug ml^−1 primer/template, 50 uM α-^32P-TTP (111 TBq/mmol; NEN Life Science products)), contained 200 fmol of HSV Pol ([Weisshart et al. 1994]), 400 fmol of HSV MBP-UL42 and varying amounts of compound in a final volume of 25 ul. Reactions were carried out at 37° C. for 5 minutes and stopped by adding 5 ul of alkaline loading buffer (2mM EDTA, 50mM NaOH, 2.5% glycerol, 0.025% bromocresol green) and placing them on ice and were then loaded onto an 4% alkaline agarose gel. Gels were dried over night and exposed to phosphorescence screens (BioRad). Catalytic subunit activity filter binding assay. Compounds which elicited a decrease in fluorescence polarization were tested for the ability to inhibit DNA synthesis by Pol alone using the oligo-(dT)/poly-(dA) primer-template. Reaction mixtures (50 mM TrisHCl pH 7.5, 100 mM ammonium sulfate, 3 mM MgCl2, 0.1 mM EDTA, 1 mM DTT, 4% Glycerol, 40 μg ml^31 1 BSA, 100 μg ml^−1 primer/template, 50 μM α-^32P-TTP (111 TBq/mmol)) contained 200 fmol of HSV Pol and various amounts of each compound in a final volume of 25 μl. Reactions were carried out at 37° C. for 25 minutes and stopped by placing 10 μl of the reaction mix onto DE81 filter discs. After washes in sodium hydrogen phosphate, water and ethanol, they were counted in a liquid scintillation analyzer (Packard 1600 TR). Plaque reduction assay. Confluent monolayers of Vero (African green monkey kidney) cells in 12-well dishes were infected with herpes virus strain 17 dilutions such that each well received between 25 and 50 PFU. […]
For orientation: Fluorescence polarisation rises when a labelled molecule tumbles more slowly, as on binding a larger partner.

Data set [2] has as its target T2, Pol/UL42 long-chain DNA synthesis (HSV Pol + HSV MBP-UL42) (Human herpesvirus 1, UniProt P10226).
T2 construct: in presence of the whole catalytic subunit; made in house; host or cells: UL42 fusion: E. coli BL21(de3)pLysS
Description: DNA polymerase long-chain synthesis assay. Conditions: for ability of UL42 to stimulate long-chain synthesis by Pol: FIG. 4, BP1, BP3, BP5 at 30 μM, BP9 at 100, 75, 50, 25 and 12 μM. In kind it is biochemical, herpes simplex virus. As for the experimental part:
(§1) DNA polymerase long-chain synthesis assay. Compounds which elicited a decrease in the fluorescence polarization, when compared to control values, were tested for the ability to inhibit long-chain DNA synthesis via inhibition of polymerase subunit assembly [Digard et al. 1995; Bridges et al. 2001] using a poly-A template (Amersham Pharmacia) and an oligo-dT primer (Roche Molecular Biochemicals) on which Pol alone adds only a few bases. Reaction mixtures (50 mM Tris-HCl pH 7.5, 100 mM ammonium sulfate, 3 mM MgCl2, 0.1 mM EDTA, 1 mM DTT, 4% Glycerol, 40 ug ml^−1 BSA, 100 ug ml^−1 primer/template, 50 uM α-^32P-TTP (111 TBq/mmol; NEN Life Science products)), contained 200 fmol of HSV Pol ([Weisshart et al. 1994]), 400 fmol of HSV MBP-UL42 and varying amounts of compound in a final volume of 25 ul. Reactions were carried out at 37° C. for 5 minutes and stopped by adding 5 ul of alkaline loading buffer (2mM EDTA, 50mM NaOH, 2.5% glycerol, 0.025% bromocresol green) and placing them on ice and were then loaded onto an 4% alkaline agarose gel. Gels were dried over night and exposed to phosphorescence screens (BioRad). Catalytic subunit activity filter binding assay. Compounds which elicited a decrease in fluorescence polarization were tested for the ability to inhibit DNA synthesis by Pol alone using the oligo-(dT)/poly-(dA) primer-template. Reaction mixtures (50 mM TrisHCl pH 7.5, 100 mM ammonium sulfate, 3 mM MgCl2, 0.1 mM EDTA, 1 mM DTT, 4% Glycerol, 40 μg ml^31 1 BSA, 100 μg ml^−1 primer/template, 50 μM α-^32P-TTP (111 TBq/mmol)) contained 200 fmol of HSV Pol and various amounts of each compound in a final volume of 25 μl. Reactions were carried out at 37° C. for 25 minutes and stopped by placing 10 μl of the reaction mix onto DE81 filter discs. After washes in sodium hydrogen phosphate, water and ethanol, they were counted in a liquid scintillation analyzer (Packard 1600 TR). Plaque reduction assay. Confluent monolayers of Vero (African green monkey kidney) cells in 12-well dishes were infected with herpes virus strain 17 dilutions such that each well received between 25 and 50 PFU. Diluted virus was absorbed to cells in 2 ml Dulbecco's modified Eagle's medium containing 2.5% newborn calf serum, 100 U penicillin G ml^−1 and 100 ug streptomycin sulfate ml^−1 for 1 hour at 37° C. in a humidified CO2 incubator. After absorption, triplicate infected cultures were overlaid with 2% methyl cellulose in Dulbecco's modified Eagle's medium containing 5% newborn calf serum, 100 U penicillin G ml^−1, 100 ug streptomycin sulfate ml^−1 and various concentrations of the compounds which elicited a decrease in fluorescence polarization and incubated at 37° C. in a humidified CO2 incubator. Plaques were visualized by crystal violet staining at 2 to 3 days post infection and were counted on the following day [Coen et al. 1985]. Cytotoxicity assays. Vero cells (5×10^4 cells per well) were seeded into 96-well plates and treated with various concentrations of the compounds (which elicited a decrease in the fluorescence polarization) for 72 h in quadruplicates. […] In parallel, equally compound-treated cells were fixed by adding 95% ethanol, stained with crystal violet solution and washed. After addition of 100 ul acidified ethanol (EtOH:HCl=99:1) to dissolve the crystal violet, the plates were read in the plate reader (Wallac). Viral yield assay. Vero cells were seeded into 96-well (5×10^4 cells per well) tissue culture plates in 0.2 ml Dulbecco's modified Eagle's medium containing 2.5% newborn calf serum and 100 U penicillin G ml^−1. Cultures were inoculated with HSV strain 17 at an MOI of 5 PFU per cell. The virus inoculum was replaced after two hours with medium containing dilution series of test compounds and left for 24 hours. After two cycles of freeze-thawing, each drug dilution row was transferred to a freshly seeded 96-well plate and serially 1:3 diluted over the whole plate. After two days, plaques were stained and counted under a microscope [Pritchard et al. 1990]. […]

Data set [3] deals with T3, HSV Pol (Human herpesvirus 1, UniProt P04293).
T3 construct: in presence of the whole catalytic subunit
Description: Catalytic subunit activity filter binding assay (Pol alone). The data set is classed as biochemical, herpes simplex virus. As for the experimental part:
as §1

Data set [4] concerns the target T4, HSV Pol (Human herpesvirus 1, UniProt P04293, N46K).
T4 construct: in presence of the whole catalytic subunit
The data set is described as above. The data set is classed as biochemical, herpes simplex virus. Conditions: at higher compound concentrations, FIG. 5. As for the experimental part: as §1

Data set [5] is described as follows: Cytotoxicity assay (XTT / crystal violet). The data set is classed as cell-based, African green monkey. Conditions: monkey; for CC50 at 72 h: Vero cells, read-out: Toxicity IC50. As for the experimental part: as §1, with “Vero cells were seeded into 96-well (5×10^4 cells per well) tissue culture plates in 0.2 ml Dulbecco's modified Eagle's medium containing 2.5% newborn calf serum and 100 U penicillin G ml^−1. Cultures were inoculated with HSV strain 17 at an MOI of 5 PFU per cell. The virus inoculum was replaced after two hours with medium containing dilution series of test compounds and left for 24 hours. After two cycles of freeze-thawing, each drug dilution row was transferred to a freshly seeded 96-well plate and serially 1:3 diluted over the whole plate.” left out
Background: Tetrazolium dyes change colour on reduction, which living cells bring about.

In a further data set the test system is HSV strain 17. Description: Viral yield assay. In kind it is cell-based, herpes simplex virus. Conditions: Vero cells, MOI of 5, 24 h; read-out: ED90 viral yield reduction. As for the experimental part: (§2) DNA polymerase long-chain synthesis assay. Compounds which elicited a decrease in the fluorescence polarization, when compared to control values, were tested for the ability to inhibit long-chain DNA synthesis via inhibition of polymerase subunit assembly [Digard et al. 1995; Bridges et al. 2001] using a poly-A template (Amersham Pharmacia) and an oligo-dT primer (Roche Molecular Biochemicals) on which Pol alone adds only a few bases. […] Compounds which elicited a decrease in fluorescence polarization were tested for the ability to inhibit DNA synthesis by Pol alone using the oligo-(dT)/poly-(dA) primer-template. […] After washes in sodium hydrogen phosphate, water and ethanol, they were counted in a liquid scintillation analyzer (Packard 1600 TR). […] After absorption, triplicate infected cultures were overlaid with 2% methyl cellulose in Dulbecco's modified Eagle's medium containing 5% newborn calf serum, 100 U penicillin G ml^−1, 100 ug streptomycin sulfate ml^−1 and various concentrations of the compounds which elicited a decrease in fluorescence polarization and incubated at 37° C. in a humidified CO2 incubator. Plaques were visualized by crystal violet staining at 2 to 3 days post infection and were counted on the following day [Coen et al. 1985]. […] After addition of 100 ul acidified ethanol (EtOH:HCl=99:1) to dissolve the crystal violet, the plates were read in the plate reader (Wallac). […]

Another data set has as its system herpes virus strain 17. The data set can be described thus: Plaque reduction assay. In kind it is cell-based, herpes simplex virus. Conditions: Vero cells, data not shown. On the procedure: as §2
In general terms: Plaque reduction counts the foci of infection that form in a cell layer.

T2 sequence (P10226 1-339): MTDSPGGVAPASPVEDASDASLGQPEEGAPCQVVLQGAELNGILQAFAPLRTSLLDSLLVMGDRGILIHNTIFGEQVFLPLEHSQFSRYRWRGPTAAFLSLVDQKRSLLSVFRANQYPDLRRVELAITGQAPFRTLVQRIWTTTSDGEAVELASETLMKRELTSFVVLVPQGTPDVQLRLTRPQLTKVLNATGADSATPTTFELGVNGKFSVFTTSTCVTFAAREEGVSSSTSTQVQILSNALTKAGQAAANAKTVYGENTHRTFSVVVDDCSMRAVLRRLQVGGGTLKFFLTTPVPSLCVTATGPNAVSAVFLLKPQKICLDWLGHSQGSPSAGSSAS
T1 sequence (P10226 1-339, stated change not applied): as the sequence (P10226 1-339) above
T3 sequence (P04293 whole entry N46K): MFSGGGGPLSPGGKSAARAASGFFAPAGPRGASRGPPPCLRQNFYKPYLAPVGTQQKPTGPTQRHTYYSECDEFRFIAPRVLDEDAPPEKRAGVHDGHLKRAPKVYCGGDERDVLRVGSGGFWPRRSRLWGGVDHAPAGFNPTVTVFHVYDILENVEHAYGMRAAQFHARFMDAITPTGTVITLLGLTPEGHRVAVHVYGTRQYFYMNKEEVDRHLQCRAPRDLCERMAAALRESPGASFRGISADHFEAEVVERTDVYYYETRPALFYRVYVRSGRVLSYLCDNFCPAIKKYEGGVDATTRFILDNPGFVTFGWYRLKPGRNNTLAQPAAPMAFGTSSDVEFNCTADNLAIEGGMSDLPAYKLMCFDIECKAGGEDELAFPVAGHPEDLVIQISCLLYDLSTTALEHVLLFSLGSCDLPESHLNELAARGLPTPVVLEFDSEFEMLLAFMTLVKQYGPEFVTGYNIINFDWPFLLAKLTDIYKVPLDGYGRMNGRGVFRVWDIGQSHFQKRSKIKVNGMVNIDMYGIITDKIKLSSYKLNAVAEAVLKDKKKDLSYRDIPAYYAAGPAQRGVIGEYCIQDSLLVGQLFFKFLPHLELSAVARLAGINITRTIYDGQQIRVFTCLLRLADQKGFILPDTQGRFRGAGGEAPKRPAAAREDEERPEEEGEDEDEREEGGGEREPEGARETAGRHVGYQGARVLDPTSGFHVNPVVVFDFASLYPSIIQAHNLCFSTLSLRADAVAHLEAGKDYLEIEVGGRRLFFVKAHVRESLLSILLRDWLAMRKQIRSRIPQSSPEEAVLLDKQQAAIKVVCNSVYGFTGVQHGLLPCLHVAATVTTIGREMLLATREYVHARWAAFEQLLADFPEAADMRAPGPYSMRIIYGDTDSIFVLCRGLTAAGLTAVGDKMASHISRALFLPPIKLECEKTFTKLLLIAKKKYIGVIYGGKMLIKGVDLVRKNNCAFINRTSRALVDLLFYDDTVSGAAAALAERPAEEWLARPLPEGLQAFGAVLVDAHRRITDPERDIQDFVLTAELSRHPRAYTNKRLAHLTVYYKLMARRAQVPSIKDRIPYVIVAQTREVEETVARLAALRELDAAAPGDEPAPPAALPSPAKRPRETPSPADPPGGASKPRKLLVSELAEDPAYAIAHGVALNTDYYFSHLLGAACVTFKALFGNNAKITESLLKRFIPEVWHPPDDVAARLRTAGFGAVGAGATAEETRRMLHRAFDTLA
T4 sequence (P04293 whole entry N46K): as above

Take `Cc1ccc(C(C)C)cc1OCC(=O)NN=Cc1cc([N+](=O)[O-])ccc1O` [BP1]: in data set [1], the IC50 (as a rule, the concentration needed to halve the response being measured) is 35 µM and the “dose dependent change in the FP signal” value was “dose dependent change”. For the same molecule, in data set [2], the IC50 is 25 µM and the “ability of UL42 to stimulate long-chain synthesis by Pol” value (“ability of UL42” for short) was “greatly reduced”. This molecule had an IC50 on HSV Pol [3] greater than 100 µM. Besides, the “Pol activity in absence of UL42” value at HSV Pol [4] is “did not show a significant change”. Besides, in data set [5], the CC50 at 72 h turned out to be 20 µM.

As for `CC(C)C(C(=O)O)N1C(=O)/C(=C/c2ccc(Cl)cc2Cl)SC1=S` (stereo not drawn) [BP3], in data set [1], the IC50 was found to be 12 µM and the “dose dependent change in the FP signal” value was “dose dependent change”. In data set [2], the IC50 turned out to be 30 µM and the “ability of UL42” value is listed as “greatly reduced”. For the same molecule, the half-maximal inhibitory concentration (IC50) on HSV Pol [3] was 25 µM. Further, at HSV Pol [4], the “Pol activity in absence of UL42” value is on record as “significantly reduced”. The CC50 at 72 h in data set [5] was 200 µM.

For the molecule `O=C(Nc1cccc2nsnc12)c1cc(Br)ccc1NS(=O)(=O)c1ccc(Cl)cc1` [BP5], in data set [1], the half-maximal inhibitory concentration (IC50) came out at 15 µM and the “dose dependent change in the FP signal” value is “dose dependent change”. Also, in data set [2], the 50% inhibitory concentration (IC50) was 26 µM and the “ability of UL42” value is recorded as “greatly reduced”. The molecule also registered an IC50 on HSV Pol [3] greater than 100 µM. Further, the “Pol activity in absence of UL42” value at HSV Pol [4] is listed as “did not show a significant change”. In addition, the CC50 in data set [5] (vero cells, Vero cell line, read-out: 50% toxic dose) was 50 µM. Also, in data set [5], the CC50 at 72 h was found to be 50 µM. In the data set with HSV strain 17, the EC90 came to 0.4 µM. Also, the plaque formation result with herpes virus strain 17 is recorded as “completely abolish”.

For the origin of these results see US7132231B2, “Fluorescence polarization method for determining viral inhibitors” (priority 2001, dated 2006).
